What was measured:
KCNQ2/3 channels = target: T1, KCNQ2/3 channels (Homo sapiens, UniProt O43525+O43526); assay: Fluorescence assay using a voltage sensitive dye (fluorimetry); type: cell-based; details: CHO-K1 cells expressing KCNQ2/3 channels; for Emax: relative to retigabine = 100%, read-out: Fluorimetry % efficacy (retigabine = 100%)
T1 construct: expressed in transfected cells
Description: Method I. Fluorescence Assay Using a Voltage Sensitive Dye (Fluorimetry)
[…] CHO-K1 cells expressing KCNQ2/3 channels are cultivated adherently at 37° C., 5% CO2 and 95% humidity in cell culture bottles (e.g. 80 cm^2 TC flasks, Nunc) with DMEM-high glucose (Sigma Aldrich, D7777) including 10% FCS (PAN Biotech, e.g. 3302-P270521) or alternatively MEM Alpha Medium (1×, liquid, Invitrogen, #22571), 10% fetal calf serum (FCS) (Invitrogen, #10270-106, heat-inactivated) and the necessary selection antibiotics.
Before being sown out for the measurements, the cells are washed with 1×DPBS buffer Ca^2+/Mg^2+-free (e.g. Invitrogen, #14190-094) and detached from the bottom of the culture vessel by using Accutase (PAA Laboratories, #L11-007) (incubation with Accutase for 15 min at 37° C.). The cell number is determined using a CASY™ cell counter (TCC, Schärfe System). Depending on the optimal density for each individual cell line, 20,000-30,000 cells/well/100 μl are seeded onto 96-well Corning™ CellBIND™ assay plates (Flat Clear Bottom Black Polystyrene Microplates, #3340). Freshly seeded cells are then left to settle for one hour at room temperature, followed by incubation for 24 hours at 37° C., 5% CO2 and 95% humidity.
The voltage-sensitive fluorescent dye from the Membrane Potential Assay Kit (Red™ Bulk format part R8123 for FLIPR, MDS Analytical Technologies™) is prepared by dissolving the contents of one vessel Membrane Potential Assay Kit Red Component A in 200 ml of extracellular buffer (ES buffer, 120 mM NaCl, 1 mM KCl, 10 mM HEPES, 2 mM CaCl2, 2 mM MgCl2, 10 mM glucose; pH 7.4). After removal of the nutrient medium, the cells are washed once with 200 μl of ES buffer, then loaded for 45 min at room temperature in 100 μl of dye solution in the dark.
Fluorescence measurements are carried out in a BMG Labtech FLUOstar™, BMG Labtech NOVOstar™ or BMG Labtech POLARstar™ instrument (525 nm excitation, 560 nm emission, Bottom Read mode). After incubation with the dye, 50 μl of the test substances in the desired concentrations, or 50 μl of ES buffer for control purposes, are applied to the wells of the assay plate and incubated for 30 min at room temperature while being shielded from light. The fluorescence intensity of the dye is then measured for 5 min and the fluorescence value F1 of each well is thus determined at a given, constant time. 15 μl of a KCl solution are then added to each well (final concentration of potassium ions 92 mM). The change in fluorescence intensity is subsequently monitored until all the relevant values have been obtained (mainly 5-30 min). At a given time post KCl application, a fluorescence value F2 is determined, in this case at the time of the fluorescence peak.
For calculation, the fluorescence intensity F2 is corrected for the fluorescence intensity F1, and the activity (ΔF/F) of the target compound on the potassium channel is determined as follows:
In order to determine whether a substance has agonistic activity,
[formula] can be related to
[formula] of control wells.
[formula] is determined by adding to the well only the buffer solution instead of the test substance, determining the value F1K of the fluorescence intensity, adding the potassium ions as described above, and measuring a value F2K of the fluorescence intensity. F2K and F1K are then calculated as follows: […]
A substance has an agonistic activity on the potassium channel if
[formula] is greater than
Independently of the comparison of
[formula] it is possible to conclude that a target compound has agonistic activity if
(§1) [formula] increases dose dependently. Calculations of EC50 and IC50 values are carried out with the aid of ‘Prism v4.0’ software (GraphPad Software™) Method II. Low-Intensity Tail Flick Test (Rat)

[1] = tested on: withdrawal reflex of the rat tail (tail flick) in response to a radiant heat beam; assay: Low-intensity tail flick test (rat); type: in vivo; details: po, peroral, read-out: Low intensity tail flick, rat, peroral, % MPE (dose [mg/kg])
Description: as §1
In the low-intensity tail flick test, the determination of the antinociceptive effect of the compounds according to the invention towards an acute noxious thermal stimulus is carried out by measuring the withdrawal reflex of the rat tail (tail flick) in response to a radiant heat beam (analgesia meter; model 2011 of the company Rhema Labortechnik, Hofheim, Germany) according to the method described by D'Annour and Smith (J. Pharm. Exp. Ther. 72, 74 79 (1941). To this end, the rats were placed in a plexiglas restrainer, and a low-intensity radiant heat beam (48° C.) was focused onto the dorsal surface of the tail root. The stimulus intensity was adjusted to result in a mean pre-drug control withdrawal latency of about 7 s, thus also allowing a supraspinal modulation of the spinally mediated acute nociceptive reflex. A cutoff time of 30 s was applied to avoid tissue damage. Male Sprague-Dawley rats (Janvier, Le Genest St. Isle, Frankreich) with weights of 200-250 g were used. 10 rats were used per group. Before administration of a compound according to the invention, the animals were pre-tested twice in the course of five minutes and the mean of these measurements was calculated as the pre-test mean. The antinociceptive effect was determined at 20, 40 and 60 min after peroral compound administration. The antinociceptive effect was calculated based on the increase in the tail withdrawal latency according to the following formula and is expressed as percentage of the maximum possible effect (MPE [%]): MPE=[(T1−T0)/(T2−T0)]*100
In this, T0 is the control latency time before and T1 the latency time after administration of the compound, T2 is the cutoff time and MPE is the maximum possible effect. Employing variant analysis (repeated measures ANOVA) allowed testing of statistically significant differences between the compounds according to the invention and the vehicle group. The significance level was set to p≦0.05. To determine the dose dependency, the particular compound according to the invention was administered in 3-5 logarithmically increasing doses, including a threshold dose and a maximum effective dose, and the ED50 values were determined with the aid of regression analysis. The ED50 calculation was performed at the time of maximum efficacy (usually 20 min after administration of the compounds).

| Compound | EC50 (KCNQ2/3 channels) [µM] | Emax (KCNQ2/3 channels) [%] | inhibition in vivo at 10 mg/kg [1] [%] | inhibition in vivo at 6.81 mg/kg [1] [%] |
| --- | --- | --- | --- | --- |
| CCCc1nc2cc(C(F)(F)F)ccc2c(C)c1C(=O)NCc1ccc(F)cc1 [Example 3, N-[(4-fluorophenyl)-methyl]-4-methyl-2-propyl-7-(trifluoromethyl)-quinoline-3-carboxylic acid amide] | 0.043 | 126 | 51 |  |
| CCc1nc2cc(C(F)(F)F)ccc2c(C)c1C(=O)NCc1cccc(F)c1 [Example 6, 2-Ethyl-N-[(3-fluorophenyl)-methyl]-4-methyl-7-(trifluoromethyl)-quinoline-3-carboxylic acid amide] | 0.178 | 177 |  | 51 |
| Cc1c(C(=O)NCc2ccc(F)cc2)c(C(C)C)nc2cc(C(F)(F)F)ccc12 [Example 7, N-[(4-Fluorophenyl)-methyl]-2-isopropyl-4-methyl-7-(trifluoromethyl)-quinoline-3-carboxylic acid amide] | 0.065 | 181 | 54 |  |
| Cc1c(C(=O)NCc2cccc(F)c2)c(C(C)C)nc2cc(C(F)(F)F)ccc12 [Example 8, N-[(3-Fluorophenyl)-methyl]-2-isopropyl-4-methyl-7-(trifluoromethyl)-quinoline-3-carboxylic acid amide] | 0.053 | 185 | 65 |  |
| Cc1c(C(=O)NCc2ccc(F)cc2)c(C2CC2)nc2cc(C(F)(F)F)ccc12 [Example 9, 2-Cyclopropyl-N-[(4-fluorophenyl)-methyl]-4-methyl-7-(trifluoromethyl)-quinoline-3-carboxylic acid amide] | 0.126 | 161 | 15 |  |
| Cc1c(C(=O)NCc2cccc(F)c2)c(C2CC2)nc2cc(C(F)(F)F)ccc12 [Example 10, 2-Cyclopropyl-N-[(3-fluorophenyl)-methyl]-4-methyl-7-(trifluoromethyl)-quinoline-3-carboxylic acid amide] | 0.091 | 182 |  | 43 |
| COCc1nc2cc(C(F)(F)F)ccc2c(C)c1C(=O)NCc1cccc(F)c1 [Example 15, N-[(3-fluorophenyl)-methyl]-2-(methoxymethyl)-4-methyl-7-(trifluoromethyl)-quinoline-3-carboxylic acid amide] | 0.635 | 117 | 9 |  |
| COCc1nc2cc(C(F)(F)F)ccc2c(C)c1C(=O)NCc1ccc(F)cc1 [Example 16, N-[(4-Fluorophenyl)-methyl]-2-(methoxymethyl)-4-methyl-7-(trifluoromethyl)-quinoline-3-carboxylic acid amide] | 0.393 | 96 | 21 |  |
| Cc1c(C(=O)NCc2ccc(F)cc2)c(C(C)C)nc2cc(C#N)ccc12 [Example 40, 7-Cyano-N-[(4-fluorophenyl)-methyl]-2-isopropyl-4-methyl-quinoline-3-carboxylic acid amide] | 0.19 | 163 |  |  |
